Experimental data reported in patent US8722676B2, “Bicyclic piperazine compounds” (Genentech, Inc., priority 2011, dated 2014).

Tested on: production of CD69 by B lymphocytes in human whole blood activated with goat F(ab')2 anti-human IgM
Test: CD69 Whole Blood Assay (CD69 Hu Blood FACS)
Assay type: cell-based
Conditions: anti-IgM stimulated, 20 hour incubation, CD69+ of CD20+ cells
Excerpt: A CD69 Whole Blood Assay can be conducted on Formula I compounds to determine the ability of compounds to inhibit the production of CD69 by B lymphocytes in human whole blood activated by crosslinking surface IgM with goat F(ab′)2 anti-human IgM (Example 907). CD69 is a type II C-type lectin involved in lymphocyte migration and cytokine secretion. CD69 expression represents one of the earliest available indicators of leukocyte activation and its rapid induction occurs through transcriptional activation (Vazquez et al (2009) Jour. of Immunology Published Oct. 19, 2009, doi:10.4049/jimmunol.0900839). Concentration-dependent inhibition of antigen receptor stimulation by selective Btk inhibitors induces cell surface expression of the lymphocyte activation marker CD69 (Honigberg et al (2010) Proc. Natl. Acad. Sci. 107(29):13075-13080). Thus, CD69 inhibition by selective Btk inhibitors may be correlated with therapeutic efficacy of certain B-cell disorders.
Human blood is obtained from healthy volunteers, with the following restrictions: 1 week drug-free, non-smokers. Blood (approximately 20 mls to test 8 compounds) is collected by venipuncture into Vacutainer® (Becton, Dickinson and Co.) tubes with sodium heparin.
Solutions of Formula I compounds at 10 mM in DMSO are diluted 1:10 in 100% DMSO, then are diluted by three-fold serial dilutions in 100% DMSO for a ten point dose-response curve. The compounds are further diluted 1:10 in PBS and then an aliquot of 5.5 μl of each compound is added in duplicate to a 2 ml 96-well plate; 5.5 μl of 10% DMSO in PBS is added as control and no-stimulus wells. Human whole blood—HWB (100 μl) is added to each well. After mixing the plates are incubated at 37° C., 5% CO2, 100% humidity for 30 minutes. Goat F(ab′)2 anti-human IgM (10 μl of a 500 μg/ml solution, 50 μg/ml final) is added to each well (except the no-stimulus wells) with mixing and the plates are incubated for an additional 20 hours. At the end of the 20 hour incubation, samples are incubated with fluorescent labeled antibodies for 30 minutes, at 37° C., 5% CO2, 100% humidity. Include induced control, unstained and single stains for compensation adjustments and initial voltage settings. Samples are then lysed with PharM Lyse™ (BD Biosciences Pharmingen) according to the manufacturer's instructions. Samples are then transferred to a 96 well plate suitable to be run on the BD Biosciences HTS 96 well system on the LSRII machine. Data acquired and Mean Fluorescence Intensity values were obtained using BD Biosciences DIVA Software. Results are initially analyzed by FACS analysis software (Flow Jo).

Compound | CD69 Hu Blood FACS IC70 (Table 1) [nM] | CD69 Hu Blood FACS IC70 (Table 2) [nM]
CN1CCN(c2ccc(Nc3cc(-c4cc(F)cc(N5CCn6c(cc7c6CCCC7)C5=O)c4CO)cn4ccnc34)nc2)CC1 [Compound 101, 2-(5-Fluoro-2-(hydroxymethyl)-3-(8-(5-(4-methylpiperazin-1-yl)pyridin-2-ylamino)imidazo[1,2-a]pyridin-6-yl)phenyl)-3,4,6,7,8,9-hexahydropyrazino[1,2-a]indol-1(2H)-one] | 7 | 
O=C1c2cc3c(n2CCN1c1cc(F)cc(-c2cc(Nc4ccc(N5CCN(C6COC6)CC5)cn4)c4nccn4c2)c1CO)CCCC3 [Compound 102, 2-(5-Fluoro-2-(hydroxymethyl)-3-(8-(5-(4-(oxetan-3-yl)piperazine-1-yl)pyridine-2-ylamino)imidazo[1,2-a]pyridin-6-yl)phenyl)-3,4,6,7,8,9-hexahydro-pyrazino[1,2-a]indol-1(2H)-one] | 11 | 
CN1CCN(c2ccc(Nc3cc(-c4cc(F)cc(N5CCc6c(sc7c6CCCC7)C5=O)c4CO)cn4ccnc34)nc2)CC1 [Compound 103, 5-[5-Fluoro-2-(hydroxymethyl)-3-{(8-(5-(4-methylpiperazin-1-yl)pyridine-2-ylamino)imidazo[1,2-a]pyridin-6-yl)}phenyl]-8-thia-5-azatricyclo[7.4.0.0^2,7]trideca-1(9),2(7)-dien-6-one] | 319 | 
CN1CCN(c2ccc(Nc3cc(-c4cc(F)cc(N5CCn6c(cc7c6CCCC7)C5=O)c4CO)nn4ccnc34)nc2)CC1 [Compound 104, 2-(5-Fluoro-2-(hydroxymethyl)-3-(8-(5-(4-methylpiperazin-1-yl)pyridin-2-ylamino)imidazo[1,2-b]pyridazin-6-yl)phenyl)-3,4,6,7,8,9-hexahydropyrazino[1,2-a]indol-1(2H)-one] | 96 | 
O=C1c2cc3c(n2CCN1c1cc(F)cc(-c2cc(Nc4ccc(N5CCN(C6COC6)CC5)cn4)c4nccn4n2)c1CO)CCCC3 [Compound 105, 2-(5-Fluoro-2-(hydroxymethyl)-3-(8-(5-(4-(oxetan-3-yl)piperazin-1-yl)pyridin-2-ylamino)imidazo[1,2-b]pyridazin-6-yl)phenyl)-3,4,6,7,8,9-hexahydro-pyrazino[1,2-a]indol-1(2H)-one] | 49 | 
CN1CCN(c2ccc(Nc3nc(-c4cc(F)cc(N5CCn6c(cc7c6CCCC7)C5=O)c4CO)cn4ccnc34)nc2)CC1 [Compound 106, 2-(5-Fluoro-2-(hydroxymethyl)-3-(8-(5-(4-methylpiperazin-1-yl)pyridin-2-ylamino)imidazo[1,2-a]pyrazin-6-yl)phenyl)-3,4,6,7,8,9-hexahydropyrazino[1,2-a]indol-1(2H)-one] | 814 | 
O=C1c2cc3c(n2CCN1c1cc(F)cc(-c2cn4ccnc4c(Nc4ccc(N5CCN(C6COC6)CC5)cn4)n2)c1CO)CCCC3 [Compound 107, 2-(5-Fluoro-2-(hydroxymethyl)-3-(8-(5-(4-(oxetan-3-yl)piperazin-1-yl)pyridin-2-ylamino)imidazo[1,2-a]pyrazin-6-yl)phenyl)-3,4,6,7,8,9-hexahydro-pyrazino[1,2-a]indol-1(2H)-one] | 939 | 
O=C1c2cc3c(n2CCN1c1cc(F)cc(-c2cc(Nc4ccc(N5CCN(C6COC6)CC5)cn4)c4ncnn4c2)c1CO)CCCC3 [Compound 108, 2-(5-Fluoro-2-(hydroxymethyl)-3-(8-(5-(4-(oxetan-3-yl)piperazin-1-yl)pyridin-2-ylamino)-[1,2,4]triazolo[1,5-a]pyridin-6-yl)phenyl)-3,4,6,7,8,9-hexahydropyrazino[1,2-a]indol-1(2H)-one] | 58 | 
Cn1cnc2c(Nc3ccc(N4CCN(C5COC5)CC4)cn3)cc(-c3cc(F)cc(N4CCn5c(cc6c5CCCC6)C4=O)c3CO)cc21 [Compound 109, 2-(5-Fluoro-2-(hydroxymethyl)-3-(3-methyl-7-(5-(4-(oxetan-3-yl)piperazin-1-yl)pyridin-2-ylamino)-3H-benzo[d]imidazol-5-yl)phenyl)-3,4,6,7,8,9-hexahydropyrazino[1,2-a]indol-1(2H)-one] | 1300 | 
CC1(C)Cc2cc3n(c2C1)CCN(c1cc(F)cc(-c2cc(Nc4ccc(N5CCN(C6COC6)CC5)cn4)c4nccn4n2)c1CO)C3=O [Compound 110, 10-[5-Fluoro-2-(hydroxymethyl)-3-(8-(5-(4-(oxetan-3-yl)piperazin-1-yl)pyridin-2-ylamino)imidazo[1,2-b]pyridazin-6-yl)phenyl]-4,4-dimethyl-1,10-diazatricyclo[6.4.0.0^2,6]dodeca-2(6),7-dien-9-one] | 15 | 
O=C1c2sc3c(c2CCN1c1cc(F)cc(-c2cc(Nc4ccc(N5CCN(C6COC6)CC5)cn4)c4nccn4n2)c1CO)CCCC3 [Compound 111, 5-[5-Fluoro-2-(hydroxymethyl)-3-(8-(5-(4-(oxetan-3-yl)piperazin-1-yl)pyridin-2-ylamino)imidazo[1,2-b]pyridazin-6-yl)phenyl]-8-thia-5-azatricyclo[7.4.0.0^2,7]trideca-1(9),2(7)-dien-6-one] | 313 | 
O=c1c2sc3c(c2cnn1-c1cc(F)cc(-c2cc(Nc4ccc(N5CCN(C6COC6)CC5)cn4)c4nccn4n2)c1CO)CCCC3 [Compound 112, 5-[5-Fluoro-2-(hydroxymethyl)-3-(8-(5-(4-(oxetan-3-yl)piperazin-1-yl)pyridin-2-ylamino)imidazo[1,2-b]pyridazin-6-yl)phenyl]-8-thia-4,5-diazatricyclo-[7.4.0.0^2,7]trideca-1(9),2(7),3-trien-6-one] | 126 | 
CC1(C)Cc2sc3c(c2C1)CCN(c1cc(F)cc(-c2cc(Nc4ccc(N5CCN(C6COC6)CC5)cn4)c4nccn4n2)c1CO)C3=O [Compound 113, 10-[5-Fluoro-2-(hydroxymethyl)-3-(8-(5-(4-(oxetan-3-yl)piperazin-1-yl)pyridine-2-ylamino)imidazo[1,2-b]pyridazin-6-yl)phenyl]-4,4-dimethyl-7-thia-10-azatricyclo[6.4.0.0^2,6]dodeca-1(8),2(6)-dien-9-one] | 12 | 
O=C1c2cc3c(n2CCN1c1nccc(-c2cc(Nc4ccc(N5CCN(C6COC6)CC5)cn4)c4nccn4n2)c1CO)CCCC3 [Compound 114, 2-(3-(Hydroxymethyl)-4-(8-(5-(4-(oxetan-3-yl)piperazin-1-yl)pyridin-2-ylamino)imidazo[1,2-b]pyridazin-6-yl)pyridin-2-yl)-3,4,6,7,8,9-hexahydropyrazino[1,2-a]indol-1(2H)-one] | 118 | 
O=C1c2cc3c(n2CCN1c1cc(F)cc(-c2cc(Nc4ccc(N5CCN(C6COC6)CC5)cn4)c4nc[nH]c4c2)c1CO)CCCC3 [Compound 116, 2-[5-fluoro-2-(hydroxymethyl)-3-[7-[[5-[4-(oxetan-3-yl)piperazin-1-yl]-2-pyridyl]amino]-3H-benzimidazol-5-yl]phenyl]-3,4,6,7,8,9-hexahydropyrazino[1,2-a]indol-1-one] |  | 1300
O=C1c2cc3c(n2CCN1c1cc(F)cc(-c2nc(Nc4ccc(N5CCN(C6COC6)CC5)cc4)c4nc[nH]c4n2)c1CO)CCCC3 [Compound 117, 2-[5-fluoro-2-(hydroxymethyl)-3-[6-[4-[4-(oxetan-3-yl)piperazin-1-yl]anilino]-9H-purin-2-yl]phenyl]-3,4,6,7,8,9-hexahydropyrazino[1,2-a]indol-1-one] |  | 812
O=C1c2cc3c(n2CCN1c1nccc(-c2cc(Nc4ccc(N5CCN(C6COC6)CC5)cn4)c4nc[nH]c4c2)c1CO)CCCC3 [Compound 118, 2-[3-(hydroxymethyl)-4-[7-[[5-[4-(oxetan-3-yl)piperazin-1-yl]-2-pyridyl]amino]-3H-benzimidazol-5-yl]-2-pyridyl]-3,4,6,7,8,9-hexahydropyrazino[1,2-a]indol-1-one] |  | 4300
O=C1c2sc3c(c2CCN1c1cc(F)cc(-c2nc(Nc4ccc(N5CCN(C6COC6)CC5)cc4)c4nc[nH]c4n2)c1CO)CCCC3 [Compound 119, 2-[5-fluoro-2-(hydroxymethyl)-3-[6-[4-[4-(oxetan-3-yl)piperazin-1-yl]anilino]-9H-purin-2-yl]phenyl]-3,4,5,6,7,8-hexahydrobenzothiopheno[2,3-c]pyridin-1-one] |  | 727
O=C1c2cc3n(c2CCN1c1cc(F)cc(-c2nc(Nc4ccc(N5CCN(C6COC6)CC5)cc4)c4nc[nH]c4n2)c1CO)CCCC3 [Compound 120, 2-[5-fluoro-2-(hydroxymethyl)-3-[6-[4-[4-(oxetan-3-yl)piperazin-1-yl]anilino]-9H-purin-2-yl]phenyl]-3,4,6,7,8,9-hexahydropyrido[3,4-b]indolizin-1-one] |  | 1900
